In patent publication US20110059124A1, “THE QUALITY CONTROL METHOD AND APPLICATION OF A KIND OF GANODERMA LUCIDUM SPORE OIL FAT EMULSION” (Guangzhou Hanfang Natural Medicine Research & Development …, priority 2008, published 2011):
Marks after values point to notes of the source that are not given here. Ends that are not written are not given here.

Key:
Assay type in all cases: in vivo, ICR mice
[1] = system: H22 tumor bearing mice; test: Delayed hypersensitivity (DNFB) in H22 tumor bearing mice; details: 0.42 mg/kg Sc once every other day
Text: Experiment Treatment Effect of Ganoderma lucidium Spore Oil Fat Emulsion i.v. Dosage Influencing the Immunity Function of Specific Cells in H22 Tumor Bearing Mice
Take 50 ICR mice, inoculate with H22 solid tumor pursuant to the research method of transplantable tumor (take the tumor mass under sterile operation, then weigh, grinding with Glass tissue homogenizer, after homogeneity, put into sterile containers, then dilute with normal saline into cell suspension of 1:3, for each mouse, inoculate intracutaneously under the right armpit for 0.2 ml). On the second day, they are randomized into 5 groups, with 10 mice in each group, with half being males and half females, which are divided into: Intravenous Control Group ([…], Blank Group), High, Medium, Low Doasge Groups injected with Ganoderma lucidium spore oil fat emulsion (1, 0.5, 0.25 g/kg) iv administered, Thymosin a1 injection group (0.42 mg/kg) Sc administered; apart from that Thymosin a1 is administered once every other day, other groups are administered once daily, with 7 administration. On day 1 after dosage, hair is removed from the abdomen of each mouse, with an area of 3×3 cm^2. On day 2 after dosage, smear 1% of DNFB evenly on the abdomen of mice (DNFB is a kind of haptene, which after combination with cutaneous proteins could form holoantigen, that stimulate the T Lymphocytes to multiply into sensitized lymphocytes).

[2] = system: H22 tumor bearing mice; test: Phagocytic activity of reticuloendothelial system (RES) in H22 tumor bearing mice; details: 0.42 mg/kg Sc once every other day
Description: Experiment Treatment Effect of Ganoderma lucidium Spore Oil Fat Emulsion i.v. Dosage Influencing the Phagocytic Activity of Reticuloendothelial System (RES) in H22 Tumor Bearing Mice.
Experiment Method: Take 50 ICR mice, inoculate with H22 solid tumor, randomize into 5 groups pursuant to body weight, with 10 animals in each group, half of which are females and half of which are males. […] Apart from that Thymosin a1 is administered once every other day, other groups are administered once daily, with a total dosage of 11 times. […] All the data obtained are statistically treated (t Test).

[3] = system: H22 tumor bearing mice; test: Toxicity reduction for chemotherapy with cyclophosphamide (Cy) in H22 tumor bearing mice; details: 0.42 mg/kg Sc once every other day + Cy 100 mg/kg ip
Description: Toxicity Reduction Effect of Ganoderma lucidium Spore Oil Fat Emulsion i.v. Dosage for Chemotherapy with Cyclophosphamide (Cy) in H22 Tumor Bearing Mice
Experiment Method: Take 60 ICR mice, inoculate with H22 solid tumor, weigh 24 hours after inoculation, then randomize into 6 groups, with 10 animals in each group, half of which are females and half of which are males. […] Apart from that Thymosin a1 are dosed once every other day, the other groups are administered once daily, with a total dose of 7 times, on day 4 and day 5 of administration, apart from blank control, the other groups begin to be treated with ip.Cy (100 mg/kg), for two successive day, and the mice are sacrificed 24 hours after termination of dosage, weigh and collect blood from the orbit veins before sacrificing, microscopic examine the total number of peripheral blood leukocytes, at the same time dissect one complete femur, then determine the number of nucleated cells in the bone marrow, and remove the thymus gland and spleen for weighing, and calculate the coefficients of thymus glands and spleen organs, and carry out statistical treatment (t Test).

[4] = system: normal mice; test: Toxicity reduction for chemotherapy (Cy) in normal mice; details: 0.42 mg/kg Sc once every other day + Cy 100 mg/kg ip
Description: Toxicity reducing Effect of Ganoderma lucidium Spore Oil Fat Emulsion i.v. Dosage for Chemotherapy (Cy) in Normal Mice
Experiment Method: Take 60 ICR mice, and randomize into 6 groups pursuant to body weight, with 10 animals in each group, half of which are females and half of which are males. […] Apart from that Thymosin a1 is administered once every other day, other groups are administered once daily, with a total dosage of 7 times. On day 4 and day 5 of the administration, apart from blank control, the other groups begin to be treated with ip.Cy (100 mg/kg), for two successive days, and the mice are sacrificed 24 hours after termination of dosage, weigh and collect blood from the orbit veins before sacrificing, microscopically examine the total number of peripheral blood leukocytes, at the same time dissect one complete femur, then determine the number of nucleated cells in the bone marrow, and remove the thymus gland and spleen for weighing, and calculate the coefficients of thymus glands and spleen organs, and carry out statistical treatment (t Test).

[5] = system: H22 tumor bearing mice; test: Toxicity reduction for ^60Co radiation in H22 tumor bearing mice; details: ^60Co 500 rad, 0.42 mg/kg Sc once every other day
Description: Toxicity Reducing Effect of Ganoderma lucidium Spore Oil Fat Emulsion i.v. Dosage for Chemotherapy with ^60Co in H22 Tumor Bearing Mice
(§1) Experiment Method: Take 60 ICR mice, innoculate with H22 solid tumor pursuant to the research method for transplantable tumors, 24 hours after innoculation, apart from the 10 animals in blank control, the other 50 mice receive ^60Co radiation, with a dosage of 500 rad; after radiation with ^60Co, randomize the animals into 5 groups pursuant to body weight, with 10 animals in each group, half of which are females and half of which are males. […] Apart from that Thymosin a1 are dosed once every other day, the other groups are administered once daily, with a total dose of 7 times, and the mice are sacrificed 24 hours after termination of dosage, weigh and collect blood from the orbit veins before sacrificing, microscopically examine the total number of peripheral blood leukocytes, at the same time remove spleen, thymus gland and one complete femur, then determine the number of nucleated cells in bone marrow, and weigh the thymus gland and spleen, and calculate the coefficients of thymus glands and spleen organs, and carry out statistical treatment (t Test).

[6] = system: normal mice; test: Toxicity reduction for ^60Co radiation in normal mice; details: ^60Co 500 rad, 0.42 mg/kg Sc once every other day
Description: Toxicity Reducing Effect of Ganoderma lucidium Spore Oil Fat Emulsion i.v . Dosage for Chemotherapy ^60Co in Normal Mice
as §1, with “mice,” for “mice, innoculate with H22 solid tumor pursuant to the research method for transplantable tumors, 24 hours after innoculation,”, “are radiated with ^60Co,” for “receive ^60Co radiation,”, “All groups of animals are dosed 24 hours after innoculation, apart” for “Apart”, “leukocytes;” for “leukocytes,”

For “Thymosin a1: Positive control drug Thymosin a1 injection, 0.42 mg/kg Sc (SDAAVDTSSEITTKDLKEKKEVVEEAEN; ends and bridges not checked; UniProt P06454 2-29, looked up)”, the “Swelling Degree” value ([1]; 24 hours after DNFB attack) was 13.50 ± 3.44 mg, the “Swelling Rate” value ([1]; 24 hours after DNFB attack) was 89.12 ± 19.76 % and the “Body Weight After Dosage” value ([1]; in g) was 25.10 ± 2.18. For the same substance, the “Body Weight Before Dosage” value ([1]; in g) was 19.30 ± 1.34, the “Clearance Index K” value [2] was 0.09 ± 0.02 and the “Liver Coefficient” value [2] was 6.91 ± 1.08 g/100 g. The “Phagocytic Coefficient α” value [2] was 5.71 ± 0.76, the “Spleen Coefficient” value [2] was 1.16 ± 0.44 g/100 g and the “Thymus Gland Coefficient” value [2] was 0.33 ± 0.11 g/100 g. For the same substance, the “Body Weight After Dosage” value [3] was 23.60 ± 2.27 g, the “Body Weight Before Dosage” value [3] was 19.70 ± 1.57 g and the “Spleen Coefficient” value [3] was 0.64 ± 0.21 g/100 g. The “The number of nucleated cells in bone marrow” value (“The number of nucleated cells” for short) [3] was 73.31 ± 15.99* 10^5/piece, the “Thymus Gland Coefficient” value [3] was 0.12 ± 0.04 g/100 g and the WBC [3] was 2.03 ± 0.44* 10^9/L. For the same substance, the “Body Weight After Dosage” value [4] was 22.90 ± 2.18 g, the “Body Weight Before Dosage” value [4] was 19.60 ± 1.26 g and the “Spleen Coefficient” value [4] was 0.36 ± 0.10 g/100 g. For the same substance, the “The number of nucleated cells” value [4] was 75.43 ± 13.32* 10^5/piece, the “Thymus Gland Coefficient” value [4] was 0.18 ± 0.03 g/100 g and the WBC [4] was 2.04 ± 0.41* 10^9/L. For the same substance, the “Body Weight After Dosage” value [5] was 24.20 ± 2.25 g, the “Body Weight Before Dosage” value [5] was 19.60 ± 1.51 g and the “Spleen Coefficient” value [5] was 0.33 ± 0.04 g/100 g. For the same substance, the “The number of nucleated cells” value [5] was 82.71 ± 13.58* 10^5/piece, the “Thymus Gland Coefficient” value [5] was 0.17 ± 0.07 g/100 g and the WBC [5] was 1.98 ± 0.31* 10^9/L. The “Body Weight After Dosage” value [6] was 23.30 ± 2.11 g, the “Body Weight Before Dosage” value [6] was 19.90 ± 1.66 g and the “Spleen Coefficient” value [6] was 0.31 ± 0.14 g/100 g. For the same substance, the “The number of nucleated cells” value [6] was 67.83 ± 13.09* 10^5/piece, the “Thymus Gland Coefficient” value [6] was 0.14 ± 0.05 g/100 g and the WBC [6] was 1.21 ± 0.38* 10^9/L.
